Results: US20220031607A1, “INJECTION COMPOSITION CONTAINING FAB I INHIBITOR, AND PREPARATION METHOD THEREFOR” (CRYSTALGENOMICS, INC., priority 2019, published 2022)

Key:
[1] = test system: Staphylococcus aureus ATCC 29213 (MSSA, standard strain); assay: Susceptibility test (MIC), standard strain; type: cell-based; conditions: Staphylococcus aureus ATCC 29213; read-out: MIC
Protocol: (§1) For the compound of formula 1, pharmacokinetic/pharmacodynamic experiments were conducted using a mouse infection model. To this end, experiments were conducted with Staphylococcus aureus ATCC 29213 (MSSA, standard strain) and 13B-382 (MRSA, clinical strain). As a medium, Mueller-Hinton broth or Cation-adjusted Mueller-Hinton broth was used. For the susceptibility test (minimum inhibitory concentration (MIC)), the compound of formula 1 was used.

[2] = Evaluation of water solubility according to pH; type: physicochemical; conditions: thermodynamic from solid
Protocol: Experimental Example 1-1: […] After completion of the stirring, insoluble substances that may remain were removed by first centrifugation and second filtration with 0.22 μm filter. The substances were diluted with organic solvent methanol and analyzed by HPLC for […] of the solubility. […] As the pH increases, the solubility tends to decrease rapidly.

[3] = Evaluation of excipient suitability (related substances on storage at 60° C.); type: physicochemical; set-up: Total related substances, Initial value: unit not given here; conditions: for Total related substances, Severe (1 week): 60° C.
Protocol: The resulting product was stored at 60° C. and the stability of the compound of formula 1 was measured. The measurement of related substances was evaluated according to the guidelines for the evaluation of related substances of the Ministry of Food and Drug Safety, and the results are shown in Table 2.

[4] = test system: Methicillin-resistant Staphylococcus aureus (MRSA) strains; assay: Drug susceptibility (MIC) of MRSA clinical isolates; type: cell-based; conditions: Methicillin-resistant, n = 100
Protocol: (§2) In order to verify the inhibitory effect of the compound of formula 1 on antibiotic-resistant strains, drug susceptibility was evaluated by treating the compound of formula 1 with Staphylococcus aureus phenotype isolated from each patient. In an in vitro test for antibiotic development, the most important result can be MIC90 (minimum inhibitory concentration required to inhibit the growth of 90% of the total bacterial population). […] Appelbaum at Hershey Hospital who is recognized for its authority in the field of anti-infection worldwide.

[5] = Stability after dilution of prepared freeze-dried powder in physiological saline; type: physicochemical; conditions: 16% HP-beta-cyclodextrin solution, 60 °C, aqueous with cosolvent or surfactant or cyclodextrin, thermodynamic from solid; in 16% HP-beta-cyclodextrin; read-out: highest solubility
Protocol: Hydroxypropyl beta-cyclodextrin (HP-beta-cyclodextrin) was dissolved in distilled water for injection under stirring at room temperature and heated to 60° C., and the compound of formula 1 was added thereto, stirred and enclosed therein. The liquid injection was sterilized and filtered through 0.22 μm filter paper. The filtered injection solution was filled into a glass vial, cooled at −80° C., and freeze-dried to commercialize.

[6] = Solubility in excipients and solvents by HPLC analysis; type: physicochemical; conditions: for solubility at 1 h: thermodynamic from solid
Protocol: The excipients approved as pharmaceutical additives and solvents that can be used for future process studies were selected as shown in Table 1. A small amount of the compound of formula 1 was added and dissolved. The addition operation was repeated until completely dissolved. Finally, it was stirred at room temperature for one hour and then filtered to determine the concentration of the compound of formula 1 dissolved in the filtrate through HPLC analysis.
20 μL of each the test solution and the standard solution were tested according to a liquid chromatography method (HPLC) of general test methods of the Korean Pharmacopoeia under the following conditions, and the peak area of the main component of each solution was measured.
Operating Condition and Calculation
Detector: UV spectrophotometer (measurement wavelength 286 nm)
Column: Aegispak C18-L (4.6 mm×250 mm, 5 μm) column
Column temperature: 25° C.
Mobile phase: Acetonitrile:water=3:2

[7] = test system: Methicillin-susceptible Staphylococcus aureus strains; assay: Drug susceptibility (MIC) of methicillin-susceptible clinical isolates; type: cell-based; conditions: Methicillin-susceptible, n = 103
Protocol: as §2

[8] = test system: Staphylococcus aureus 13B-382 (MRSA, clinical strain); assay: Susceptibility test (MIC), clinical strain; type: cell-based; conditions: Staphylococcus aureus 13B-382, read-out: MIC
Protocol: as §1

[9] = mixed with Beta-Hydroxypropyl cyclodextrin

Compound `Cc1c(N)cccc1Cn1ccc(OCCc2cccs2)cc1=O` [Compound of formula 1, 1-(3-amino-2-methylbenzyl)-4-(2-thiophen-2-yl-ethoxy)-1H-pyridin-2-one] has an MIC [1] of 0.25 mg/L, a solubility at 2 h ([2]; aqueous buffer, aqueous solution pH 3, room temperature) of 0.006 mg/mL and a solubility at 2 h ([2]; aqueous buffer, aqueous solution pH 7, room temperature) of 0.0025 mg/mL. For the same compound, the solubility at 2 h ([2]; aqueous solutions, aqueous buffer, pH 4 to 8) was 0.002 to 0.005 mg/mL, the solubility at 2 h ([2]; simulated gastric fluid, aqueous solution pH 1.2, room temperature) was ~1 mg/mL and the “Total related substances, Initial value” ([3]; Compound of formula 1 alone) was 0.5. The “Total related substances, Severe (1 week)” value ([3]; Compound of formula 1 alone) was 0.5, the “Total related substances, Initial value” [3, 9] was 0.5 and the “Total related substances, Severe (1 week)” value [3, 9] was 0.6. For the same compound, the “Total related substances, Initial value” ([3]; mixed with Cremophor 40) was 1.6, the “Total related substances, Severe (1 week)” value ([3]; mixed with Cremophor 40) was 3.4 and the “Total related substances, Initial value” ([3]; mixed with Glycerin) was 1.4. For the same compound, the “Total related substances, Severe (1 week)” value ([3]; mixed with Glycerin) was 1.1, the “Total related substances, Initial value” ([3]; mixed with Labrasol) was 6.2 and the “Total related substances, Initial value” ([3]; mixed with Oleic acid) was 6.2. The “Total related substances, Initial value” ([3]; mixed with Olive oil) was 1.1, the “Total related substances, Severe (1 week)” value ([3]; mixed with Olive oil) was 0.7 and the “Total related substances, Initial value” ([3]; mixed with PEG) was 1.1. The “Total related substances, Initial value” ([3]; mixed with PEG 400) was 6.4, the “Total related substances, Severe (1 week)” value ([3]; mixed with PEG 400) was 9.8 and the “Total related substances, Initial value” ([3]; mixed with PEG 20,000) was 4.2. For the same compound, the “Total related substances, Severe (1 week)” value ([3]; mixed with PEG 20,000) was 1, the “Total related substances, Severe (1 week)” value ([3]; mixed with PEG) was 7 and the “Total related substances, Initial value” ([3]; mixed with PVA) was 0.9. The “Total related substances, Initial value” ([3]; mixed with PVA 2,000) was 0.9, the “Total related substances, Severe (1 week)” value ([3]; mixed with PVA 2,000) was 0.6 and the “Total related substances, Severe (1 week)” value ([3]; mixed with PVA) was 0.6. For the same compound, the “Total related substances, Initial value” ([3]; mixed with Poloxamer 407) was 0.9, the “Total related substances, Severe (1 week)” value ([3]; mixed with Poloxamer 407) was 0.5 and the “Total related substances, Initial value” ([3]; mixed with Propylene glycol) was 1. For the same compound, the “Total related substances, Severe (1 week)” value ([3]; mixed with Propylene glycol) was 5, the “Total related substances, Initial value” ([3]; mixed with Solutol HS 15) was 0.7 and the “Total related substances, Severe (1 week)” value ([3]; mixed with Solutol HS 15) was 3.8. For the same compound, the “Total related substances, Initial value” ([3]; mixed with Soybean Oil) was 1.1, the “Total related substances, Severe (1 week)” value ([3]; mixed with Soybean Oil) was 1.4 and the “Total related substances, Initial value” ([3]; mixed with Transcutol HP) was 1.9. For the same compound, the “Total related substances, Severe (1 week)” value ([3]; mixed with Transcutol HP) was 9.1, the “Total related substances, Initial value” ([3]; mixed with Tween 80) was 1.2 and the “Total related substances, Severe (1 week)” value ([3]; mixed with Tween 80) was 2.6. For the same compound, the Stability with excipients ([3]; with soybean oil, olive oil, Tween 80, PEG 20000, PVA, PVA 2000, poloxamer 407, beta-hydroxypropyl cyclodextrin, glycerin) was “relatively stable”, the “MIC Range” value [4] was 0.06 to 1.0 mg/L and the MIC50 ([4]; Staphylococcus aureus, MRSA, read-out: MIC50) was 0.25 mg/L. The MIC90 ([4]; Staphylococcus aureus, MRSA, read-out: MIC90) was 0.25 mg/L, the Solubility [5] was 3 mg/mL and the solubility at 1 h ([6]; Capryol 90, oil or lipid, in Capryol 90) was 2.9 mg/mL. The solubility at 1 h ([6]; DMSO, organic solvent or mixture, in DMSO) was 180 mg/mL, the solubility at 1 h ([6]; Labrasol, aqueous with cosolvent or surfactant or cyclodextrin, in Labrasol) was > 20 mg/mL and the solubility at 1 h ([6]; PEG 300, organic solvent or mixture, in PEG 300) was > 20 mg/mL. The solubility at 1 h ([6]; Peceol, oil or lipid, in Peceol) was 4.4 mg/mL, the solubility at 1 h ([6]; Solutol HS 15, aqueous with cosolvent or surfactant or cyclodextrin, in Solutol HS 15) was ≥ 10 mg/mL and the solubility at 1 h ([6]; Tween 20, aqueous with cosolvent or surfactant or cyclodextrin, in Tween 20) was > 20 mg/mL. For the same compound, the solubility at 1 h ([6]; Tween 80, aqueous with cosolvent or surfactant or cyclodextrin, in Tween 80) was ≥ 10 mg/mL, the solubility at 1 h ([6]; glycerol, organic solvent or mixture, in Glycerol) was 0.26 mg/mL and the Solubility ([6]; in Ethanol) was 3.65 mg/mL. For the same compound, the Solubility ([6]; in Methanol) was 6.14 mg/mL, the Solubility ([6]; in Propylene glycol) was 3.8 mg/mL and the solubility at 1 h ([6]; methyl chloride, organic solvent or mixture, in Methyl chloride) was ~60 mg/mL. For the same compound, the solubility at 1 h ([6]; oleic acid, oil or lipid, in Oleic acid) was 2 mg/mL, the solubility at 1 h ([6]; pH 2.0 solution, pH 2, simulated gastric fluid, in pH 2.0) was 0.44 mg/mL and the solubility at 1 h ([6]; soybean oil, oil or lipid, in Soybean Oil) was ~8.5 mg/mL. For the same compound, the “MIC Range” value [7] was 0.06 to 1.0 mg/L, the MIC50 ([7]; Staphylococcus aureus, read-out: MIC50) was 0.25 mg/L and the MIC90 ([7]; Staphylococcus aureus, read-out: MIC90) was 0.25 mg/L. It also gave an MIC [8] of 0.25 mg/L.
